The text below walks through data of patent US20250282735A1, “BICYCLE COMPOUNDS AS TEAD INHIBITOR” (DONG-A ST CO., LTD., priority 2022, published 2025).

Broadly, the IC50 is the concentration that inhibits the measured activity by half. Read a high IC50 as a need for much substance.

A value given as a limit tells only on which side of the number the result lay.

Assay type in all cases: cell-based
One assay concerns MSTO-211H cells. Description: Proliferation assay (EdU incorporation), MSTO-211H. To be noted: Homo sapiens, 72 h, YAP-driven MSTO-211H (LATS1 mutation), 3 days with inhibitor, 1% serum. As for the experimental part:
(§1) The anti-proliferative activity of TEAD inhibitors was evaluated in cells with different properties for YAP; “YAP-driven” cells (MSTO-211H, NCI-H226) in which YAP located in the nucleus and “YAP-independent” cells (OCM1, NCI-H28) where YAP located in the cytoplasm. […] TEAD inhibitors were evaluated with cell lines with these YAP profiling and mutational status.
(§2) The next day, replace it with cell starvation medium containing 1% serum. After one day of growth in the starvation medium, the cells were incubated for 3 days with TEAD inhibitors in a concentration range of 0.01-10 μM. After 3 days, EdU (Invitrogen) at a concentration of 10 µM was added to the starvation medium and incubated for an additional 24 hours. After removing the starvation medium remaining in each well, wash the wells with PBS. Cells were fixed with 4% paraformaldehyde (Electron microscopy sciences) at room temperature for 20 minutes. After removing the fix solution remaining in each well, wash the wells with PBS and the cells were permeabilized for 40 minutes by adding 0.5% triton X-100 (Sigma Aldrich). After removing the permeabilization solution remaining in each well, the EdU labeling was performed according to the instructions of the manufacturer's instructions (Click-iT™ Cell Reaction Buffer Kit, Invitrogen). After the Click reaction for EdU labeling, nuclei were stained with […] (Thermo Scientific) for total cell count analysis. After plate preparation for detection, Image acquisition was performed using the ImageXpress Micro XLS. The acquired images were analyzed using MetaXpress software (molecular devices). Through this experimental method, it was possible to confirm the inhibitory activity of TEAD inhibitors by detection EdU incorporated into proliferating cells.
(§3) IC50 for cell proliferation inhibition activity are shown in the Table 2 below and designated within the following ranges. [+++: ≤0.1 μM, ++: >0.1 μM to ≤1 μM, +: >1 μM to ≤10μ, −: >10 μM]

The subject of assay [1] is TEAD reporter-containing human breast cancer cell line MCF7. Nature of the assay: TEAD reporter (luciferase) assay. The settings on record: TEAD reporter MCF7 cells, 24 hours treatment, 1% serum media. The method in brief: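 Cells plated at 30,000/well overnight, then treated 24 h in 1% serum medium with 0.1% DMSO. CCK-8 viability read at 450 nm, then Dual-Glo luciferase luminescence; IC50 from non-linear regression of dose-response curves.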

The subject of another assay is NCI-H226 cells. Description: Proliferation assay (EdU incorporation), NCI-H226. To be noted: Homo sapiens, 72 h, YAP-driven NCI-H226 (NF2 mutation), 3 days with inhibitor, 1% serum. As for the experimental part: as §1, §2, §3

Turning to `C=CC(=O)Nc1ccc2c(c1)c(/C=C/C1CCC(F)(F)CC1)nn2C` [Compound 1, (E)-N-(3-(2-(4,4-Difluorocyclohexyl)vinyl)-1-methyl-1H-indazol-5-yl)acrylamide], the IC50 with MSTO-211H cells was 100 to 1000 nM; in assay [1], at most 100 nM; in the assay on NCI-H226 cells, at most 100 nM.
On to `C=CC(=O)Nc1ccc2c(c1)c(/C=C/c1ccc(Cl)cc1)nn2C` [Compound 2, (E)-N-(3-(4-Chlorostyryl)-1-methyl-1H-indazol-5-yl)acrylamide], for which the IC50 in the assay with MSTO-211H cells is at most 100 nM; in assay [1], 100 to 1000 nM; in the assay with NCI-H226 cells, at most 100 nM.
For the molecule `C=CC(=O)Nc1ccc2c(c1)c(/C=C/C1CCC(F)(F)CC1)nn2CC` [Compound 3, (E)-N-(3-(2-(4,4-Difluorocyclohexyl)vinyl)-1-ethyl-1H-indazol-5-yl)acrylamide], the 50% inhibitory concentration (IC50) with MSTO-211H cells is at most 100 nM; in assay [1], at most 100 nM; with NCI-H226 cells, 100 to 1000 nM.
For the molecule `C=CC(=O)Nc1ccc2c(c1)c(/C=C/c1ccc(Cl)cc1)nn2CC` [Compound 4, (E)-N-(3-(4-Chlorostyryl)-1-ethyl-1H-indazol-5-yl)acrylamide], the concentration for half-maximal inhibition (IC50) with MSTO-211H cells was at most 100 nM; in assay [1], above 10000 nM; with NCI-H226 cells, at most 100 nM.
Regarding `C=CC(=O)Nc1cnc2c(c1)c(/C=C/C1CCC(F)(F)CC1)cn2C` [Compound 15, (E)-N-(3-(2-(4,4-Difluorocyclohexyl)vinyl)-1-methyl-1H-pyrrolo[2,3-b]pyridin-5-yl)acrylamide], the half-inhibitory concentration (IC50) (with MSTO-211H cells; in assay [1]; with NCI-H226 cells) was at most 100 nM in each case.
As for `C=CC(=O)Nc1cnc2c(c1)c(/C=C/c1ccc(Cl)cc1)cn2C` [Compound 16, (E)-N-(3-(4-Chlorostyryl)-1-methyl-1H-pyrrolo[2,3-b]pyridin-5-yl)acrylamide], the concentration for half-maximal inhibition (IC50) in the assay with MSTO-211H cells was at most 100 nM; in assay [1], 100 to 1000 nM; with NCI-H226 cells, at most 100 nM.
Turning to `C=CC(=O)Nc1cnc2c(c1)c(/C=C/C1CCC(F)(F)CC1)cn2CC` [Compound 17, (E)-N-(3-(2-(4,4-Difluorocyclohexyl)vinyl)-1-ethyl-1H-pyrrolo[2,3-b]pyridin-5-yl)acrylamide], the figures for the half-inhibitory concentration (IC50) in the assay with MSTO-211H cells and in the assay with NCI-H226 cells were 100 to 1000 nM and at most 100 nM, respectively.
Take `C=CC(=O)Nc1cnc2c(c1)c(/C=C/c1ccc(Cl)cc1)cn2CC` [Compound 18, (E)-N-(3-(4-Chlorostyryl)-1-ethyl-1H-pyrrolo[2,3-b]pyridin-5-yl)acrylamide]: the IC50 is at most 100 nM with MSTO-211H cells, 1000 to 10000 nM in assay [1] and at most 100 nM in the assay on NCI-H226 cells.
As to `C=CC(=O)Nc1cnc2c(c1)c(/C=C/C1CCC(F)(F)CC1)cn2C(C)C` [Compound 19, (E)-N-(3-(2-(4,4-Difluorocyclohexyl)vinyl)-1-isopropyl-1H-pyrrolo[2,3-b]pyridin-5-yl)acrylamide], the IC50 is 100 to 1000 nM with MSTO-211H cells, at most 100 nM in assay [1] and at most 100 nM with NCI-H226 cells.
`C=CC(=O)Nc1ccc2c(c1)c(/C=C/C1CCC(F)(F)CC1)cn2C` [Compound 21, (E)-N-(3-(2-(4,4-Difluorocyclohexyl)vinyl)-1-methyl-1H-indol-5-yl)acrylamide]: the IC50 in the assay on MSTO-211H cells was 100 to 1000 nM; in assay [1] it was at most 100 nM; in the assay on NCI-H226 cells, 100 to 1000 nM.
With `C=CC(=O)Nc1ccc2c(c1)c(/C=C/c1ccc(Cl)cc1)cn2C` [Compound 22, (E)-N-(3-(4-Chlorostyryl)-1-methyl-1H-indol-5-yl)acrylamide], the IC50 (with MSTO-211H cells; in assay [1]; in the assay with NCI-H226 cells) was 100 to 1000 nM each time.
Regarding `C=CC(=O)Nc1ccc2c(c1)c(/C=C/c1ccc(F)cc1)cn2C` [Compound 24, (E)-N-(3-(4-Fluorostyryl)-1-methyl-1H-indol-5-yl)acrylamide], the figures for the IC50 (with MSTO-211H cells; in assay [1]; with NCI-H226 cells) were 100 to 1000 nM, 100 to 1000 nM and at most 100 nM, respectively.
In the case of `C=CC(=O)Nc1ccc2c(c1)c(/C=C/C1CCC(F)(F)CC1)cn2CC` [Compound 25, (E)-N-(3-(2-(4,4-Difluorocyclohexyl)vinyl)-1-ethyl-1H-indol-5-yl)acrylamide], the IC50 in the assay with MSTO-211H cells was at most 100 nM; in assay [1] it was at most 100 nM; with NCI-H226 cells, 100 to 1000 nM.
`C=CC(=O)Nc1ccc2c(c1)c(/C=C/c1ccc(Cl)cc1)cn2C(C)C` [Compound 28, (E)-N-(3-(4-Chlorostyryl)-1-isopropyl-1H-indol-5-yl)acrylamide]: the results for the half-inhibitory concentration (IC50) (in the assay on MSTO-211H cells; in assay [1]; with NCI-H226 cells) were 100 to 1000 nM, 100 to 1000 nM and at most 100 nM, respectively.
As to `C=CC(=O)Nc1cnc2c(c1)c(/C=C/C1CCC(F)(F)CC1)nn2C` [Compound 30, (E)-N-(3-(2-(4,4-Difluorocyclohexyl)vinyl)-1-methyl-1H-pyrazolo[3,4-b]pyridin-5-yl)acrylamide], the concentration for half-maximal inhibition (IC50) was 100 to 1000 nM with MSTO-211H cells, at most 100 nM in assay [1] and at most 100 nM in the assay with NCI-H226 cells.
With `C=CC(=O)Nc1cnc2c(c1)c(/C=C/c1ccc(Cl)cc1)nn2C` [Compound 31, (E)-N-(3-(4-Chlorostyryl)-1-methyl-1H-pyrazolo[3,4-b]pyridin-5-yl)acrylamide], the values for the IC50 (in the assay on MSTO-211H cells; in assay [1]; with NCI-H226 cells) were at most 100 nM, 100 to 1000 nM and at most 100 nM, respectively.
On to `C=CC(=O)Nc1cnc2c(c1)c(/C=C/c1ccc(F)cc1)cn2C` [Compound 47, (E)-N-(3-(4-Fluorostyryl)-1-methyl-1H-pyrrolo[2,3-b]pyridin-5-yl)acrylamide], for which the half-inhibitory concentration (IC50) in the assay on MSTO-211H cells and in the assay with NCI-H226 cells was at most 100 nM throughout.
`C=CC(=O)Nc1cnc2c(c1)c(CCc1ccc(F)cc1)cn2C` [Example 63, N-(3-(4-Fluorophenethyl)-1-methyl-1H-pyrrolo[2,3-b]pyridin-5-yl)acrylamide]: the IC50 (in the assay on MSTO-211H cells; in assay [1]; in the assay on NCI-H226 cells) was at most 100 nM throughout.
Turning to `C=CC(=O)Nc1cnc2c(c1)c(-c1ccc(Cl)c(F)c1)cn2C` [Example 87, N-(3-(4-Chloro-3-fluorophenyl)-1-methyl-1H-pyrrolo[2,3-b]pyridin-5-yl)acrylamide], the IC50 is at most 100 nM with MSTO-211H cells, 100 to 1000 nM in assay [1] and at most 100 nM in the assay on NCI-H226 cells.
Turning to `C=CC(=O)Nc1cnc2c(c1)c(-c1ccc(CC)cc1)cn2C` [Example 89, N-(3-(4-Ethylphenyl)-1-methyl-1H-pyrrolo[2,3-b]pyridin-5-yl)acrylamide], the IC50 is at most 100 nM in the assay on MSTO-211H cells, 100 to 1000 nM in assay [1] and at most 100 nM with NCI-H226 cells.
For the molecule `C=CC(=O)Nc1cnc2c(c1)c(-c1ccc3ccccc3c1)cn2C` [Example 107, N-(1-Methyl-3-(naphthalen-2-yl)-1H-pyrrolo[2,3-b]pyridin-5-yl)acrylamide], the IC50 (in the assay on MSTO-211H cells; in assay [1]) was at most 100 nM each time.
In the case of `C=CC(=O)Nc1cnc2c(c1)c(-c1ccc(SCC)cc1)cn2C` [Example 111, N-(3-(4-(Ethylthio)phenyl)-1-methyl-1H-pyrrolo[2,3-b]pyridin-5-yl)acrylamide], the IC50 was at most 100 nM in the assay on MSTO-211H cells and 100 to 1000 nM in assay [1].
In the case of `C=C(F)C(=O)Nc1cnc2c(c1)c(/C=C/c1ccc(Cl)cc1)cn2C` [Example 118, (E)-N-(3-(4-Chlorostyryl)-1-methyl-1H-pyrrolo[2,3-b]pyridin-5-yl)-2-fluoroacrylamide], the IC50 with MSTO-211H cells was at most 100 nM; in assay [1], 1000 to 10000 nM.
On the same counts, the results for `[2H]C([2H])([2H])n1cc(/C=C/c2ccc(Cl)cc2)c2cc(NC(=O)C=C)cnc21` [Example 121, (E)-N-(3-(4-Chlorostyryl)-1-(methyl-d3)-1H-pyrrolo[2,3-b]pyridin-5-yl)acrylamide] are at most 100 nM and 100 to 1000 nM.
On the same counts, the results for `C=CC(=O)Nc1ccc2c(c1)c(C1CCC(C)(C)CC1)cn2C` [Example 122, N-(3-(4,4-dimethylcyclohexyl)-1-methyl-1H-indol-5-yl)acrylamide] are 100 to 1000 nM and at most 100 nM.
Consider `C=CC(=O)Nc1cnc2c(c1)c(/C=C/c1ccc(Cl)cc1)cn2C(F)F` [Example 128, (E)-N-(3-(4-Chlorostyryl)-1-(difluoromethyl)-1H-pyrrolo[2,3-b]pyridin-5-yl)acrylamide], for which the IC50 in the assay on MSTO-211H cells and in the assay on NCI-H226 cells was 100 to 1000 nM each time.
Turning to `C=CC(=O)Nc1cnc2c(c1)c(/C=C/C1CCC(F)(F)CC1)cn2C(F)F` [Example 130, (E)-N-(3-(2-(4,4-Difluorocyclohexyl)vinyl)-1-(difluoromethyl)-1H-pyrrolo[2,3-b]pyridin-5-yl)acrylamide], the half-inhibitory concentration (IC50) (in the assay on MSTO-211H cells; in assay [1]) was 100 to 1000 nM in each case.
Regarding `C=CC(=O)Nc1cnc2c(c1)c(-c1ccc(Cl)cc1)cn2C(F)F` [Example 132, N-(3-(4-Chlorophenyl)-1-(difluoromethyl)-1H-pyrrolo[2,3-b]pyridin-5-yl)acrylamide], the half-inhibitory concentration (IC50) in the assay with MSTO-211H cells was 100 to 1000 nM; in assay [1], 1000 to 10000 nM.
